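1) Cells in 96-well plates. 2) Compound, 48 h, 5 concentrations. 3) Linear interpolation between surrounding doses. 4) Unreached endpoint = highest concentration. Abbreviation: GI50, concentration required for 50% inhibition of growth.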 The source made the active and inactive calls. No stated cut-off is given here; in the data, active = GI50 up to about 1.1 µM and inactive = higher.
Tests used:
Assay in all cases: NCI anticancer screen, dose series, 48 h
MDA-N = test system: MDA-N
BT-549 = test system: BT-549
SK-MEL-5 = test system: SK-MEL-5
PC-3 = test system: PC-3
SF-295 = test system: SF-295
A498 = test system: A498
CAKI-1 = test system: CAKI-1
NCI/ADR-RES = test system: NCI/ADR-RES
LOX IMVI = test system: LOX IMVI
SW-620 = test system: SW-620
T47D = test system: T47D
OVCAR-4 = test system: OVCAR-4
COLO 205 = test system: COLO 205
OVCAR-3 = test system: OVCAR-3
786-0 = test system: 786-0
A549 = test system: A549
SNB-19 = test system: SNB-19
SF-268 = test system: SF-268
SNB-75 = test system: SNB-75
EKVX = test system: EKVX

Measured: GI50

O=C1NI(C#Cc2ccccc2)c2ccccc21
inactive: MDA-N > 100 µM | BT-549 > 100 µM | SK-MEL-5 > 100 µM | PC-3 19 µM | SF-295 > 100 µM | A498 > 100 µM | CAKI-1 > 100 µM | NCI/ADR-RES > 100 µM | LOX IMVI > 100 µM | SW-620 > 100 µM | T47D 53 µM | OVCAR-4 53 µM | COLO 205 29.7 µM | OVCAR-3 > 100 µM | 786-0 > 100 µM | A549 59 µM | SNB-19 > 100 µM | SF-268 > 100 µM

N=C(N)NS(=O)(=O)c1ccc(NC(=O)c2cccc3c(NNc4ccc(S(=O)(=O)N=C(N)N)cc4)c4ccccc4nc23)cc1
inactive: MDA-N 91.4 µM | BT-549 33.3 µM | SNB-75 > 100 µM | SK-MEL-5 56.9 µM | PC-3 61 µM | SF-295 > 100 µM | CAKI-1 > 100 µM | NCI/ADR-RES > 100 µM | EKVX 30.8 µM | LOX IMVI 34.8 µM | SW-620 48.9 µM | T47D 22.6 µM | OVCAR-4 80.5 µM | COLO 205 92.7 µM | OVCAR-3 38.2 µM | 786-0 44.2 µM | A549 > 100 µM | SNB-19 76.7 µM | SF-268 61.9 µM

Cc1cc2nn(C3CCCCO3)nc2cc1C (configuration not stated)
inactive: MDA-N > 100 µM | BT-549 > 100 µM | SNB-75 > 100 µM | SK-MEL-5 > 100 µM | PC-3 > 100 µM | SF-295 > 100 µM | A498 60.4 µM | CAKI-1 > 100 µM | NCI/ADR-RES > 100 µM | EKVX > 100 µM | T47D > 100 µM | OVCAR-4 > 100 µM | COLO 205 > 100 µM | OVCAR-3 > 100 µM | 786-0 > 100 µM | A549 > 100 µM | SNB-19 > 100 µM | SF-268 > 100 µM

Clc1c2ncccc2cc2nn[nH]c12
inactive: MDA-N > 100 µM | BT-549 > 100 µM | SNB-75 28.5 µM | SK-MEL-5 > 100 µM | PC-3 > 100 µM | SF-295 41 µM | A498 > 100 µM | CAKI-1 > 100 µM | NCI/ADR-RES > 100 µM | EKVX > 100 µM | SW-620 > 100 µM | T47D > 100 µM | OVCAR-4 > 100 µM | COLO 205 > 100 µM | OVCAR-3 > 100 µM | 786-0 > 100 µM | A549 > 100 µM | SNB-19 > 100 µM | SF-268 > 100 µM

c1ccc(/N=C(/Nc2ccccc2)N2CCCCC2)cc1
inactive: MDA-N 43.3 µM | BT-549 > 100 µM | SNB-75 16.7 µM | SK-MEL-5 > 10 µM | PC-3 80.2 µM | SF-295 54.7 µM | CAKI-1 > 100 µM | NCI/ADR-RES > 100 µM | EKVX > 100 µM | LOX IMVI 40.3 µM | SW-620 > 100 µM | T47D > 100 µM | OVCAR-4 > 100 µM | COLO 205 59 µM | OVCAR-3 > 100 µM | 786-0 > 100 µM | A549 > 100 µM | SNB-19 > 100 µM | SF-268 > 100 µM

CC1=C(C(=O)NCC(C)O)CC(C(=O)NCC(C)O)=C(C)N1 (configuration not stated)
inactive: MDA-N > 100 µM | BT-549 > 100 µM | SNB-75 72.9 µM | SK-MEL-5 > 100 µM | PC-3 > 100 µM | SF-295 > 100 µM | CAKI-1 > 100 µM | NCI/ADR-RES > 100 µM | EKVX > 100 µM | LOX IMVI > 100 µM | SW-620 > 100 µM | T47D > 100 µM | OVCAR-4 > 100 µM | COLO 205 > 100 µM | OVCAR-3 > 100 µM | 786-0 > 100 µM | A549 > 100 µM | SNB-19 > 100 µM | SF-268 > 100 µM

COc1cc(/C=C2/C[C@H]3[C@@H]4CCC5=CC(=O)CC[C@]5(C)[C@H]4CC[C@]3(C)NC2=O)cc(OC)c1OC
inactive: MDA-N 26.4 µM | BT-549 21.6 µM | SNB-75 15.6 µM | SK-MEL-5 11.9 µM | PC-3 21.1 µM | SF-295 20 µM | A498 11.6 µM | CAKI-1 25.9 µM | NCI/ADR-RES 25.1 µM | EKVX 24.5 µM | SW-620 36.7 µM | T47D 13 µM | OVCAR-4 39.4 µM | COLO 205 18.5 µM | OVCAR-3 43.7 µM | 786-0 48.6 µM | A549 20.6 µM | SNB-19 45 µM | SF-268 26.3 µM

Cc1cccc(C)c1NC(=O)/C(Cl)=C(/Cl)C(=O)O
inactive: MDA-N 19.2 µM | BT-549 17.6 µM | SNB-75 20.2 µM | SK-MEL-5 19.9 µM | PC-3 19.8 µM | SF-295 29.2 µM | A498 33.5 µM | CAKI-1 7.66 µM | EKVX 19.5 µM | LOX IMVI 18.1 µM | SW-620 7.74 µM | T47D 27.9 µM | OVCAR-4 18.5 µM | COLO 205 7.11 µM | OVCAR-3 20.9 µM | 786-0 17.1 µM | A549 20.7 µM | SNB-19 24.5 µM | SF-268 17.2 µM

O=C1CC2[C@@H](N3CCCC3)CCC(N1Cc1ccccc1)C2(O)O (some centres not stated)
inactive: MDA-N > 100 µM | BT-549 > 100 µM | SK-MEL-5 > 100 µM | PC-3 > 100 µM | SF-295 > 100 µM | A498 > 100 µM | CAKI-1 > 100 µM | NCI/ADR-RES > 100 µM | EKVX > 100 µM | LOX IMVI > 100 µM | SW-620 > 100 µM | T47D > 100 µM | OVCAR-4 > 10 µM | COLO 205 > 100 µM | OVCAR-3 > 100 µM | 786-0 > 100 µM | A549 > 100 µM | SNB-19 > 100 µM | SF-268 > 100 µM

CCC12CC(c3ccccc3)C(C(=O)N1)C(=O)N2 (configuration not stated)
inactive: MDA-N > 100 µM | BT-549 > 100 µM | SNB-75 65.3 µM | SK-MEL-5 > 100 µM | PC-3 > 100 µM | SF-295 > 100 µM | A498 > 100 µM | CAKI-1 > 100 µM | NCI/ADR-RES > 100 µM | EKVX > 100 µM | SW-620 > 100 µM | T47D > 100 µM | OVCAR-4 > 100 µM | COLO 205 > 100 µM | OVCAR-3 > 100 µM | 786-0 > 100 µM | A549 > 100 µM | SNB-19 > 100 µM | SF-268 > 100 µM

SC1=NNC2(C(Cl)=N1)c1ccccc1-c1ccccc12
inactive: MDA-N > 10 µM | BT-549 > 10 µM | SNB-75 > 10 µM | SK-MEL-5 > 10 µM | A498 > 10 µM | CAKI-1 > 10 µM | NCI/ADR-RES > 10 µM | EKVX > 10 µM | LOX IMVI > 10 µM | SW-620 > 10 µM | T47D > 10 µM | OVCAR-4 > 10 µM | COLO 205 > 10 µM | 786-0 > 10 µM | A549 > 10 µM | SF-268 > 10 µM

COc1cc(C(c2cc(OC)c(OC)c(OC)c2)N2C(=O)CCC2C(=O)O)cc(OC)c1OC (configuration not stated)
inactive: MDA-N > 100 µM | BT-549 > 100 µM | SNB-75 > 100 µM | SK-MEL-5 > 100 µM | PC-3 > 100 µM | SF-295 > 100 µM | A498 > 100 µM | CAKI-1 > 100 µM | NCI/ADR-RES > 100 µM | EKVX > 100 µM | SW-620 > 100 µM | T47D > 100 µM | OVCAR-4 > 100 µM | COLO 205 > 100 µM | OVCAR-3 > 100 µM | 786-0 > 100 µM | A549 > 100 µM | SNB-19 > 100 µM | SF-268 > 100 µM

O=[N+]([O-])c1ccc(Cl)cc1N/N=C/c1cccs1
inactive: MDA-N > 100 µM | BT-549 > 100 µM | SNB-75 > 100 µM | SK-MEL-5 > 100 µM | PC-3 > 100 µM | SF-295 > 100 µM | CAKI-1 > 100 µM | NCI/ADR-RES > 100 µM | EKVX > 100 µM | SW-620 > 100 µM | T47D 26.4 µM | OVCAR-4 > 100 µM | COLO 205 > 100 µM | OVCAR-3 > 100 µM | 786-0 > 100 µM | A549 > 100 µM | SNB-19 > 100 µM | SF-268 > 100 µM

O=C(/C=C(\Nc1ccccc1O)c1ccc(Br)cc1)C(Cl)(Cl)Cl
inactive: MDA-N 4.69 µM | BT-549 15 µM | SNB-75 13.7 µM | SK-MEL-5 14.2 µM | PC-3 2.47 µM | SF-295 6.12 µM | CAKI-1 6.3 µM | NCI/ADR-RES 11.4 µM | EKVX 3.21 µM | LOX IMVI 17.9 µM | SW-620 3.06 µM | T47D 3.95 µM | OVCAR-4 5.16 µM | COLO 205 6.95 µM | OVCAR-3 4.34 µM | 786-0 14.4 µM | A549 2.75 µM | SNB-19 6.87 µM | SF-268 11.7 µM

COc1ccc(Cc2cc(Cc3ccc(OC)cc3)cc(Cc3ccc(OC)cc3)c2)cc1
inactive: MDA-N 6.58 µM | BT-549 > 100 µM | SNB-75 > 100 µM | PC-3 > 100 µM | SF-295 > 100 µM | A498 > 100 µM | NCI/ADR-RES > 100 µM | EKVX > 100 µM | LOX IMVI > 100 µM | SW-620 > 100 µM | T47D > 100 µM | OVCAR-4 > 100 µM | OVCAR-3 > 100 µM | 786-0 > 100 µM | A549 > 100 µM | SNB-19 > 100 µM | SF-268 > 100 µM

Source: ChEMBL document CHEMBL1201862, “PubChem BioAssay data set” (2004)
